Test results: PMC13267291, “In vivo functional profiling and structural characterization of the human GLP1R A316T variant” (Science Advances, 2026)

Tests used:
[1] = tested on: INS-1 832/3 Glp1r^−/− SNAP/FLAG-hGLP1R^A316T cells; assay: Lysosomal inhibition assay, surface GLP-1R in INS-1 832/3 cells; type: cell-based, rat; conditions: 400 nM, 2 hours; comparable to WT; n = 5; Fig. 7D
Procedure: (§1) INS-1 832/3 Glp1r^−/− SNAP/FLAG-hGLP1R^WT or ^A316T cells on coverslips, mouse hGLP1R^−/− islets transduced with pAV-SNAP/FLAG-hGLP1R^WT or ^A316T adenoviruses, or hGLP1R^A316T/A316T and ^+/+ control islets were incubated for 2 hours ± 400 nM bafilomycin-A1 (Sigma-Aldrich), an established vacuolar H^+-ATPase and lysosomal trafficking inhibitor ([98]), in complete medium. Cells and transduced hGLP1R^−/− islets were then labeled with 1 μM SNAP-Surface 549, and hGLP1R^A316T/A316T versus ^+/+ islets were treated with exendin-9–TMR in complete medium at 37°C for 10 min. Cells were washed and fixed in 4% PFA, mounted in Prolong Diamond antifade reagent with DAPI, while islets were loaded onto glass-bottom MatTek dishes in PBS, and images were acquired by confocal microscopy with a Zeiss LSM-780 inverted confocal laser scanning microscope and a 63×/1.4 numerical aperture oil immersion objective from the Imperial College FILM Facility. Images were analyzed using Fiji.

[2] = tested on: hGLP1R^−/− mouse islets transduced with SNAP/FLAG-hGLP1R^WT versus ^A316T; islets from hGLP1R^+/+ versus ^A316T/A316T mice; assay: Lysosomal inhibition assay, surface GLP-1R in mouse islets; type: cell-based; conditions: 400 nM, 2 hours; n = 3 and n = 4; Fig. 7E,F
Procedure: as §1

[3] = tested on: human GLP-1R A316T versus WT; assay: Insulin secretion assay in mouse islets; type: cell-based; conditions: HFHS-fed mouse islets; 11 mM glucose + 100 nM; fig. S6I
Procedure: Purified mouse islets used for insulin secretion assays were treated in 24-well nonadherent plates. Eight islets were used per replicate with three technical replicates per condition. For acute studies, islets were preincubated for 1 hour in KRBH buffer containing 0.1% (w/v) bovine serum albumin (BSA) (10775835001, Roche) and 3 mM glucose before incubation with 11 mM glucose ± 100 nM GLP-1RAs or the GLP-1R antagonist exendin-9 in KRBH buffer in a shaking 37°C water bath (80 rpm) for 1 hour. For overnight studies, preincubation was carried out in RPMI 1640 medium containing FBS, P/S, and 3 mM glucose, followed by treatment with medium supplemented with 11 mM glucose ± GLP-1RAs for 16 hours. Supernatants containing secreted insulin were collected, centrifuged at 1000 rpm for 1 min, and transferred to fresh tubes. For total insulin content, islets were lysed using acidic ethanol (75% ethanol, 1.5 mM HCl). Lysates were sonicated 3× 10 s each in a water bath and centrifuged at 10,000g for 10 min, and supernatants were collected. For human islets, the same experiment was performed with islets previously transduced with pAV-SNAP/FLAG-hGLP1R^WT or ^A316T adenoviruses (generated by VectorBuilder) at a multiplicity of infection of 1, 24 hours before the start of experiments. Insulin secretion assays with the human EndoC-βH3 cell line were performed following 3 weeks of treatment with 4-hydroxytamoxifen as above, followed by transduction with pAV-SNAP/FLAG-hGLP1R^WT or ^A316T adenoviruses, with insulin secretion assessed as previously described ([54]), with the following modifications: After preincubation with 0.5 mM glucose KRBH buffer, cells were stimulated with 15 mM glucose ± exendin-4 for 60 min. Total and secreted insulin samples from islets and cells were stored at −20°C until quantification using an Insulin Ultra-Sensitive HTRF kit (#62IN2PEG, Revvity) in a PHERAstar plate reader (BMG Labtech), according to the manufacturer’s instructions.

Molecule: CO/C1=C\C(C)=C\[C@@H](C)[C@@H](O)[C@@H](C)C/C(C)=C/C=C/[C@H](OC)[C@@H]([C@@H](C)[C@@H](O)[C@H](C)[C@@]2(O)C[C@@H](O)[C@H](C)[C@@H](C(C)C)O2)OC1=O [bafilomycin A1]
- Surface expression levels of GLP-1R A316T after lysosomal inhibition [1]: complete recovery of surface expression levels
- Surface GLP-1R A316T after lysosomal inhibition in islets [2]: same effect

Molecule: exendin-9
- Basal insulin secretion of A316T islets on exposure to antagonist/inverse agonist [3]: significantly reduced
